Assay results from the supplement of paper PMC4862054.

What was measured:
Settings in all cases: incubation time: 72 h
SK-BR-3 = test: normalised response (% of control), CellTiter-Glo; higher = more viable cells (100 = DMSO, 0 = benzethonium chloride kill control)
Method in brief: (§1)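 CellTox Green fluorescence (485/520 nm) and, after 10 min at room temperature, CellTiter-Glo luminescence were read from breast cancer cell lines incubated 72 h in 384-well plates. Cells were seeded as 20 µl suspension onto compound at 5 concentrations in 10-fold steps over a 10,000-fold range chosen per compound. Each plate was normalised to 0.1 % DMSO (100) and a positive kill control (0). Values are normalised signals, one per concentration.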

HDQ-P1 [1] = test: as above
Method in brief: as §1

CAL-120 [2] = test: as above
Method in brief: as §1

CAL-85-1 [3] = test: as above
Method in brief: as §1

CAL-51 [4] = test: as above
Method in brief: as §1

BT-549 [5] = test: as above
Method in brief: as §1

MFM-223 [6] = test: as above
Method in brief: as §1

MDA-MB-436 [7] = test: as above
Method in brief: as §1

HCC1937 [8] = test: as above
Method in brief: as §1

BT-474 [9] = test: as above
Method in brief: as §1

HCC1143 [10] = test: as above
Method in brief: as §1

MDA-MB-453 [11] = test: as above
Method in brief: as §1

DU-4475 [12] = test: as above
Method in brief: as §1

Hs578T [13] = test: as above
Method in brief: as §1

MCF-10A [14] = test: as above
Method in brief: as §1

CAL-148 [15] = test: as above
Method in brief: as §1

MDA-MB-468 [16] = test: as above
Method in brief: as §1

MDA-MB-231 [17] = test: as above
Method in brief: as §1

HCC1599 [18] = test: as above
Method in brief: as §1

HDQ-P1 [19] = test: normalised response (% of control), CellTox Green; higher = less cell death (100 = DMSO, 0 = benzethonium chloride kill control)
Method in brief: as §1

CAL-120 [20] = test: as above
Method in brief: as §1

CAL-85-1 [21] = test: as above
Method in brief: as §1

CAL-51 [22] = test: as above
Method in brief: as §1

BT-549 [23] = test: as above
Method in brief: as §1

MFM-223 [24] = test: as above
Method in brief: as §1

MDA-MB-436 [25] = test: as above
Method in brief: as §1

HCC1937 [26] = test: as above
Method in brief: as §1

BT-474 [27] = test: as above
Method in brief: as §1

HCC1143 [28] = test: as above
Method in brief: as §1

MDA-MB-453 [29] = test: as above
Method in brief: as §1

DU-4475 [30] = test: as above
Method in brief: as §1

Hs578T [31] = test: as above
Method in brief: as §1

MCF-10A [32] = test: as above
Method in brief: as §1

CAL-148 [33] = test: as above
Method in brief: as §1

MDA-MB-468 [34] = test: as above
Method in brief: as §1

MDA-MB-231 [35] = test: as above
Method in brief: as §1

HCC1599 [36] = test: as above
Method in brief: as §1

Compound	normalised response (SK-BR-3) [%]	normalised response (HDQ-P1 [1]) [%]	normalised response (CAL-120 [2]) [%]	normalised response (CAL-85-1 [3]) [%]	normalised response (CAL-51 [4]) [%]	normalised response (BT-549 [5]) [%]	normalised response (MFM-223 [6]) [%]	normalised response (MDA-MB-436 [7]) [%]	normalised response (HCC1937 [8]) [%]	normalised response (BT-474 [9]) [%]	normalised response (HCC1143 [10]) [%]	normalised response (MDA-MB-453 [11]) [%]	normalised response (DU-4475 [12]) [%]	normalised response (Hs578T [13]) [%]	normalised response (MCF-10A [14]) [%]	normalised response (CAL-148 [15]) [%]	normalised response (MDA-MB-468 [16]) [%]	normalised response (MDA-MB-231 [17]) [%]	normalised response (HCC1599 [18]) [%]	normalised response (HDQ-P1 [19]) [%]	normalised response (CAL-120 [20]) [%]	normalised response (CAL-85-1 [21]) [%]	normalised response (CAL-51 [22]) [%]	normalised response (BT-549 [23]) [%]	normalised response (MFM-223 [24]) [%]	normalised response (MDA-MB-436 [25]) [%]	normalised response (HCC1937 [26]) [%]	normalised response (BT-474 [27]) [%]	normalised response (HCC1143 [28]) [%]	normalised response (MDA-MB-453 [29]) [%]	normalised response (DU-4475 [30]) [%]	normalised response (Hs578T [31]) [%]	normalised response (MCF-10A [32]) [%]	normalised response (CAL-148 [33]) [%]	normalised response (MDA-MB-468 [34]) [%]	normalised response (MDA-MB-231 [35]) [%]	normalised response (HCC1599 [36]) [%]
O=C(O)C1(C(=O)O)CCC1.[NH2-].[NH2-].[Pt+2] [Carboplatin] (1000 nM)	103	95.4	95.3	95.7	108	94.2	101	98.3	95	100	101	97.6	93.9	95.1	105	96.5	100	94.4	96.4	100	104	117	106	62	89.6	95.4	113	97.7	101	111	107	103	115	105	143	106	104
CCCCC(=O)OCC(=O)[C@]1(O)Cc2c(O)c3c(c(O)c2[C@@H](O[C@H]2C[C@H](NC(=O)C(F)(F)F)[C@H](O)[C@H](C)O2)C1)C(=O)c1c(OC)cccc1C3=O [Valrubicin] (500 nM)	41	81.7	86.9	80.3	50.3	64.1	108	57.5	77.5	83.8	75.5	120	52.3	88.6	75.6	30.4	47.1	85.4	102	131	118	144	67.6	78.4	108	131	167	106	150	131	117	127	113	56.9	276	157	134
COc1cc2nccc(Oc3ccc(NC(=O)Nc4cc(C)on4)c(Cl)c3)c2cc1OC [Tivozanib] (1000 nM)	88.5	98.6	93.1	103	90.8	111	60.3	101	95.2	81.3	95.9	87.7	101	104	99.2	103	89.5	89	92.9	92.8	96.6	95.5	87.7	129	102	70.6	134	101	89.3	–	96.5	93	105	104	138	110	104
O=C(O)C(=O)O.[NH-][C@@H]1CCCC[C@H]1[NH-].[Pt+2] [Oxaliplatin] (1000 nM)	92.8	106	96.9	95.9	128	105	92.3	106	99.5	97.7	95.5	89.2	94.4	104	96.5	82.5	91.1	97	100	102	102	102	108	121	85.6	95.7	97.7	95.9	101	106	98.1	63.9	107	–	157	98.2	93.9
Cc1cnc(NC(=O)Nc2cc(Br)c(C)cc2OC[C@@H]2CNCCO2)cn1 [Rabusertib] (100 nM)	109	105	98.1	99	72.5	104	100	113	92.4	103	106	88.1	99.1	98.7	112	107	101	104	108	80.4	99.9	102	85.5	123	–	110	128	102	97.3	106	106	55.6	105	108	128	118	103
